The values that follow come from patent US8592590B2, “Tetrahydrotriazolopyridine compounds as selective MGLU5 receptor potentiators useful for the treatment of schizophrenia” (Eli Lilly and Company, priority 2009, dated 2013).

In one assay the target is T1, human mGlu5 receptor (Homo sapiens, UniProt P41594).
T1 construct: expressed in transfected cells
The experiment in a line: Functional in vitro activity at human mGlu5 receptor (FLIPR calcium, potentiator mode). It counts as cell-based. Particulars: AV-12 cells expressing human mGlu5, glutamate EC10, relative EC50. The method, then: An AV-12 cell line stably expressing the human mGlu5 receptor and co-transfected with the rat glutamate transporter EAAT 1 (Excitatory Amino Acid Transporter 1) are used for these studies (see for example Desai, Burnett, Mayne, Schoepp, Mol. Pharmacol. 48, 648-657, 1995). The cell line is maintained by culturing in Dulbecco's Modified Eagle's Medium (DMEM) with high glucose and pyridoxine hydrochloride supplemented with 5% heat inactivated, dialyzed fetal bovine serum, 1 mM sodium pyruvate, 10 mM HEPES (4-(2-hydroxyethyl)-1-piperazineethanesulfonic acid), 1 mM of L-glutamine, 0.75 mg/ml geneticin and 0.3 mg/ml hygromycin. Sub-confluent cultures are passaged twice per week using 0.25% trypsin-EDTA. […]
Intracellular calcium levels are monitored before and after the addition of compounds using a Fluorometric Imaging Plate Reader (FLIPR, Molecular Devices, Union City, Calif. USA). […] The results are analyzed using (GraphPad® Prism v4, Graphpad Software, LaJolla, Calif., USA) to calculate the concentrations of glutamate needed to induce the EC10 responses.
Compounds are tested in a two-addition FLIPR assay using a 10-point concentration response profile starting at a final concentration of 25 μM (agonist mode) or 12.5 μM (potentiator mode). […] After taking an initial 5-sec fluorescent read on the FLIPR instrument, compound is added to the cell plate (50 ul per well). […]

The test system of the next assay is Male Lister hooded rats. The experiment in a line: Delayed matching to position task (DMTP) in rats, deficit induced by NMDA antagonist SDZ 220,581. In kind it is in vivo, rat. The source says:
The delayed matching to position task (DMTP) has been used to study working memory in rats. Working memory in this context is the retention and use of information that is available only during an individual trial. The study of compounds which modulate NMDA receptors in DMTP has been used to identify the importance of NMDA receptors in learning and memory. More specifically, studies have shown competitive NMDA antagonists to induce impairment of DMTP in rats. Compounds which show a positive effect in attenuating deficits induced by competitive NMDA antagonists in rats are believed to be useful in treating cognitive disorders in humans.
Male Lister hooded rats are housed in groups of 4 and are maintained on a food-restricted diet and a 12-hour light dark cycle. The experiments are conducted during the same part of the light phase each day.
Standard operant chambers, housed in sound and light attenuating chambers are used. Each chamber comprised a house light, two retractable levers, each with a stimulus light above it. The levers are located either side of a recessed magazine where food pellets are delivered from an automatic pellet dispenser. Start of a session is signaled by onset of the house light, and its permanent offset indicated the end of a session. Experimental sessions are controlled and data is recorded and analyzed.
Sample Phase. A trial begins with a one of the levers extending into the chamber. The stimulus light above the lever is illuminated. If the lever is pressed, it is retracted and the stimulus light extinguished. This initiates the pseudo-randomly selected delay period of 1, 2, 4, 8 or 16 seconds during training or 1, 12, or 32 seconds during test.
Head Entry. After this delay period is complete, animals are required to make a head entry into the food hopper within 10 seconds, if an appropriate response is made both levers are extended into the chamber. If no response is made during this period, the house-light is extinguished and the trial counted as an omission.
Choice Phase. If animals make the appropriate head entry response and the levers extended into the operant chamber, they have 10 seconds which to make their response. A correct response consists of an animal pressing the same lever that is extended into the chamber during the sample phase. This response results in both levers retracting and a single food pellet being delivered into the food hopper. After a 5 second inter-trial interval the next trial begins. Following an incorrect response, (the animal pressing the opposite lever as had been extended during the sample phase), both levers retract and the house-light is extinguished signaling the end of that trial. After a 5 second time out the next trial begins, signaled by onset of the house-light. If the animal fails to respond within 10 second during the choice phase, the levers retract, the house-light extinguishes and the trial is recorded as an omission.
Overall Session. Each session is terminated after 75 trials (15 pseudo-random presentations of each delay period). Animals are trained to a criterion of greater than 70% accuracy over the entire session with less than 10% omissions of responding. After criterion is reached, rats are trained two times a week in a baseline condition and once a week in a test condition.
Test Compounds. A compound of the present invention stock of 1.0 mg/ml is prepared. For example, 18.7 mg of the compound of Example 11 is weighed and suspended in 18.7 ml vehicle (1% high viscocity cmc, 0.25% tween, 0.05% antifoam). A white suspension is formed. Test compound is administered orally, 60 minutes prior to the start of a session, in a volume of 1 ml/kg.
NMDA antagonist stock, 2.0 mg/ml: […] of SDZ 220,581 is weighed and dissolved in 16.73 ml vehicle (0.09 ml 1M NaOH, made up to volume with 5% glucose). A solution is formed and at a pH 6.5 at time of injection. SDZ 220,581 is administered subcutaneously, 30 minutes prior to the start of a session, in a volume of 1 ml/kg. […]

Setting [1] is: Example 11/V: Example 11 1 mg/kg orally 60 min prior, vehicle instead of SDZ.

T1 sequence (P41594 21-1212): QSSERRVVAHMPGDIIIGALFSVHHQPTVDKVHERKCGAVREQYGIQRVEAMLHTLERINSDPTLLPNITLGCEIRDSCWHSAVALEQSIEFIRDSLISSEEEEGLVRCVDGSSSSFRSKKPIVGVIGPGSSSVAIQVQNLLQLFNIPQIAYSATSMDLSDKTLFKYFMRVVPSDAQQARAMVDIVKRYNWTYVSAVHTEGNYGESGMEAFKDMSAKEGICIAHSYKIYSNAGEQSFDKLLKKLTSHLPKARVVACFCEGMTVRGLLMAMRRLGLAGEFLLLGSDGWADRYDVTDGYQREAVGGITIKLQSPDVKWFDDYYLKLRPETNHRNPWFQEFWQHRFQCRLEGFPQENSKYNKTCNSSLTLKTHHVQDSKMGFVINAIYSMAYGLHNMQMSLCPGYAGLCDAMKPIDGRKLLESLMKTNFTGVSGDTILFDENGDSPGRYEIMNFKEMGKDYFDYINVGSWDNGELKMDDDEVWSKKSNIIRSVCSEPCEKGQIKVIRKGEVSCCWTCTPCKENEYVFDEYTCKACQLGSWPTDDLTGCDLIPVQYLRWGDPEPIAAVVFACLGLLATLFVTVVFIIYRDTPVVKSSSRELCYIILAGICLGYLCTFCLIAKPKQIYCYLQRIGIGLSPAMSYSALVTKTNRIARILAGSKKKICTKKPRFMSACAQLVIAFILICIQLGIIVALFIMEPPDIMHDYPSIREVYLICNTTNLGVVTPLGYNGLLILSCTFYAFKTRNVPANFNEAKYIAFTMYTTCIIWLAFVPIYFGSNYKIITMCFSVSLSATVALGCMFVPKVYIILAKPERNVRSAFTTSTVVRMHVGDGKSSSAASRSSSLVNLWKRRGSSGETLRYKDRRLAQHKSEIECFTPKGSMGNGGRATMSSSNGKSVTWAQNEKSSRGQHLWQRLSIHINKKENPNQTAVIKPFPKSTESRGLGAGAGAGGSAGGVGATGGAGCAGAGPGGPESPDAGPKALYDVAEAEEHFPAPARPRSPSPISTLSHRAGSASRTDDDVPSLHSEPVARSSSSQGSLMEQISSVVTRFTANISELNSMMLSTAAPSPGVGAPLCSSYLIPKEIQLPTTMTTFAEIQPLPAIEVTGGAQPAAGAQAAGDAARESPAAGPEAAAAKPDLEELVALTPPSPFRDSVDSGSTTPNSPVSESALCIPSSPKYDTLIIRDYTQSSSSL

Take `CC(C)(C)c1nnc2n1CCC(c1nc(-c3ccc(F)cc3)no1)C2` (racemic) [Example 1, 3-tert-butyl-7-[3-(4-fluorophenyl)-1,2,4-oxadiazol-5-yl]-5,6,7,8-tetrahydro[1,2,4]triazolo[4,3-a]pyridine]: the half-maximal effective concentration (EC50) (commonly the concentration giving half of the maximal effect) on human mGlu5 receptor worked out at 120 ± 47 nM.
As to `CC(C)(C)c1nnc2n1CC[C@H](c1nc(-c3ccc(F)cc3)no1)C2` (single isomer, unassigned) [Example 11], on human mGlu5 receptor, the EC50 amounted to 36 ± 3.5 nM. The “Trials Completed” value in the assay on Male Lister hooded rats (Example 11/SDZ: Example 11 1 mg/kg orally 60 min prior plus SDZ 220,581 subcutaneously 30 min prior) is recorded as 72 ± 2. Besides, in the assay with Male Lister hooded rats (setting [1]), the “% Accuracy” value was 75.6 ± 1.6%, the “% Omissions” value is listed as 1.2 ± 0.4%, the “Average Correct latency” value is recorded as 0.94 ± 0.05 s and the “Average Incorrect latency” value is 0.98 ± 0.08 s. Besides, in the assay with Male Lister hooded rats (setting [1]), the “Head Entries” value stood at 2092 ± 83, the “Sample latency” value was 1.84 ± 0.22 s and the “Trials Completed” value turned out to be 75 ± 0. The “deficits induced by SDZ-220,581 in the delayed matching to position assay of working memory” value in the assay with Male Lister hooded rats (concurrent treatment with 1 mg/kg Example 11) is on record as “attenuated all deficits”.
